Assay results published in patent US8835392B2, “Mimetic peptides and the use thereof in the form of 20S, 26S and immunoproteasome inhibitors” (Technische Universität, priority 2005, dated 2014).
“Also recorded” adds a separate entry of the source. Where a SMILES comes first, the peptide text is derived from it. The star is where a group is joined. Cbz = O=C(OCc1ccccc1)*; OtBu = CC(C)(C)O*

What was measured:
[1] = tested on: caspase 3/7 activation in HeLa-cells; test: Apoptosis-assay, caspase 3/7-activity (Apo-One); assay type: cell-based; conditions: 1 μM, 20 hours
Method: HeLa-cells that were cultivated for 20 hours in the presence of the given inhibitor, were subsequently incubated for 2 hours with caspase-substrate (Apo-One; Promega). The activation of caspases 3/7 was measured at 538 nm (excitation at 485 nm). Treatment of the cells with TNFα or with MG132 served as control.
For this, 10,000 HeLa-cells pro well were seeded in a 96-well-plate, and co-cultivated for 20 hours with 1 μM of the inhibitors 7, 8, 11, 13-16, 18, 20-23 and 25-28. The induction of apoptosis was determined by measuring of the caspase 3/7-activity (Apo-One®-Assay, Promega).

[2] = molecular target: T1, proteasomal activity in HeLa-cells (Homo sapiens, UniProt P20618+P28074); test: Intracellular inhibition of proteasomes in cultivated HeLa-cells; assay type: cell-based; conditions: for reduction of the proteolytic activity in cells at 10 nM: HeLa cells; for membrane-permeation / stability during the incubation periods / proteasomal activity reduced to: cultivated cells; for proteasomal activity reduced to: remaining activity
T1 construct: endogenous in cells; host or cells: HeLa
Method: A, HeLa-cells were cultivated were 24 hours in the presence of the inhibitor. The protein concentration was determined in accordance with the cellular lysis according to Bradford in order to normalise the proteasomal activities to the different amounts of cells. Subsequently Complete (Roche) was added to all lysates, and the proteasomal activity was determined through the hydrolysis of Suc-LLVY-AMC. B, HeLa-cells was incubated with 1 μM of compound 15 for 2, 4, 6 and 24 hours. Cells were lysed, and proteins were separated through SDS-PAGE on a 10% gel, blotted to a PVDF-membrane. The accumulation of the poly-ubiquitinylated proteins was detected in a Western blot by an anti-ubiquitine-antibody (DAKO). C, HeLa-Cells were treated with increasing concentrations of the inhibitor 15, 25, 26, 27, and 28 for 24 hours (lane 1: without inhibitor; lane 2: 10 nM; lane 3: 100 nM and lane 4: 1 μM of the given inhibitor). Cells were lysed, proteins were separated on 15% gels, and the accumulation of the poly-ubiquitinylated proteins was controlled through Western blot.
HeLa-Cells were cultivated in RPMI, supplemented with 10% FCS and penicillin/streptomycin, at 5% CO2. Inhibitors were administered from 100×-stock solutions (in DMSO) at the final concentrations as indicated, and incubated with the cells for at least 20 hours.
Cultivated cells (HeLa) were harvested lysed and with 0.1% NP40 in TEAD in the presence of the commercially available protease-inhibitor-mixture Complete (Roche). The proteasomal activity was measured in 10 μl of the lysate using Suc-LLVY-AMC as a substrate. The protein content was quantified by means of Bradford (Protein assay; BioRad).
An application on cell cultures or animals requires that the concentrations of the inhibitors are chose as low as required. The specific proteasomal activity was reduced to a value of below 50% in cells that were treated with 1 μM of the compounds 15, 22, 25, 26, or 28, respectively (FIG. 6A).

[3] = tested on: T2, 20S proteasome; test: Inhibition of the different proteasomal activities, summary statements; assay type: biochemical; conditions: for which proteasomal activities are inhibited (site selectivity): isolated proteasomes, specific substrates
T2 construct: Proteasomes were isolated from red blood cells; from tissue; host or cells: red blood cells
Method: The specific inhibition of a single catalytic site is of specific interest for the development of drugs. Thus, the inhibition of the different proteasomal activities of the proteasome was analysed (see also example 6). The different cleavage-preferences of the proteasome were determined by the specific substrate for the hydrophobic (chymotrypsin-like), the trypsine-like and the caspase-like activities of isolated proteasomes.
(§1) Suc-LLVY-AMC, Z-VGR-AMC and LLE-AMC (BACHEM, Calbiochem) was used, in order to determine the chymotrypsin-like, trypsin-like or caspase-like (post-acidic)-activities of the proteasome. Substrate was incubated with proteasome at 37° C. in assay-buffer (20 mM Tris/Cl, pH 7.2, 1 mM EDTA, 1 mM DTT) for one hour. 100 ng proteasome was pre-incubated with 0.01-10 μM of the inhibitor for […]. The reaction was started by the addition of substrate (50 μM). The AMC as released was detected using fluorescence emission at 460 nm (excitation at 390 nm) using a TECAN-fluorimeter. The activity was calculated in fluorescence-units. The inhibition is depicted by IC50-values.
(§2) The effects thereof were compared with the one of the commonly used proteasomal inhibitor 3 (MG132). The chymotrypsin-like (Suc-LLVY-AMC), the trypsin-like (Bz-VGR-AMC), and the caspase-like (Z-LLE-AMC)-activities of 20S proteasomes were determined following incubation for one hour at 37° C.

[4] = molecular target: T3, 20S proteasome β1 caspase-like activity (LLE-MCA) (Homo sapiens, UniProt P28072+Q99436); test: Protease assay, caspase-like activity of isolated 20S proteasomes; assay type: biochemical; conditions: isolated 20S proteasome; LLE-MCA 50 μM; 15 min pre-incubation; read-out: IC50 β1 Caspase-like (E)
T3 construct: Proteasomes were isolated from red blood cells; from tissue; host or cells: red blood cells
Method: Proteasomes were isolated from red blood cells. Cells were lysed with DTT (1 mM), and the stroma-free supernatant was loaded on DEAE-sepharose (Toyopearls). Proteasome was eluted with an NaCl-gradient in TEAD (20 mM TrisCl pH 7.4, 1 mM EDTA, 1 mM azide, 1 mM DTT) of 100 to 300 mM NaCl. Proteasome was concentrated using ammonium sulfate-precipitation (between 40 and 70% saturation) and was separated in a 10-40% sucrose-gradient through centrifugation at 40.000 rpm for 16 hours (SW40; L7, Beckman & Coulter). Finally, the proteasomes were purified on a MonoQ-column and eluted with an NaCl-gradient at about 280 mM NaCl. The fractions containing purified proteasome were dialysed against 50 mM NaCl in TEAD and stored on ice. The purity was determined using SDS-PAGE.
as §1, §2
The IC50-values form the inhibition of the proteasome were calculated at increasing concentrations of the inhibitor. The samples were pre-incubated for 15 min in ice. The assay was started through the addition of 50 μM of one of the following fluorogenic peptide substrates:
The release of MCA was determined at 460 nm emission (excitation 390 nm). The IC50-values as calculated for MG132 served as controls.

[5] = tested on: HeLa-cells; test: Viability of HeLa-cells, crystal violet-staining; assay type: cell-based; conditions: for rate of survival of HeLa-cells: 10 μM, 20 hours
Method: A, The viability of HeLa-Cells that were incubated with the compounds 7-28 and MG132 (1 μM), was determined using crystal-violet-staining after 20 h.
B, The viability of HeLa-Cells is dependent from the concentration of the inhibitor. HeLa-cells were cultivated for 20 hours in the presence of increasing concentrations (10 to 10000 nM) of the compounds (7, 13, 15, 18, 20-22, 24-28) and MG 132. The survival of the cells was determined using crystal-violet-staining.
The viability of Hela-Cells in the presence of different compounds was tested in […]. The viability of HeLa-cells was tested through crystal violet-staining following the incubation with the inhibitors. The cells were washed once with PBS, fixed with 1% glutardialdehyde for 30 min, and washed again. Finally, the fixed cells were stained with 0.1% crystal violet in PBS for 30 min, and subsequently carefully washed with water, in order to remove unbound dye. The residual dye was eluted with 0.1% Triton X-100 in PBS, and determined at 550 nm.

reduction of the proteolytic activity in cells at 10 nM [2] | stability during the incubation periods [2] | proteasomal activity reduced to [2] [%] | IC50 ([3]; proteasomal activity not given, read-out: IC50-values of the most potent inhibitors) [µM] | IC50 [4] [µM] | SMILES | induction of apoptosis (activation of caspase 3 and 7) [1] | membrane-permeation [2] | which proteasomal activities are inhibited (site selectivity) [3] | toxicity [5] | rate of survival of HeLa-cells [5]
reduction of the proteolytic activity | sufficient stability | 10 | < 0.06 | 1.79 | CC(C)CC(C=O)NC(=O)C(CC(=O)OC(C)(C)C)NC(=O)C(CC(C)C)NC(=O)OCc1ccccc1 (stereo not drawn) [Compound 15, Z-Leu-Asp(O^tBu)Leu-CHO] (Cbz-Leu-Asp(OtBu)-Leu-aldehyde; configuration not given here) | beginning apoptosis; also recorded: strong induction of apoptosis | able to penetrate cellular membranes; also recorded: membrane-permeation | inhibited all of the proteasomal hydrolytic activities | low toxicity | markedly reduced
reduction of the proteolytic activity | sufficient stability | 10 | – | > 10 | CC(C)C[C@H](NC(=O)OCc1ccccc1)C(=O)N[C@@H](CC(C)C)C(=O)N[C@@H](CC(C)C)C(=O)C(=O)Nc1ccccc1 [Compound 28] | beginning apoptosis; also recorded: strong induction of apoptosis | membrane-permeation | exclusive reduction of the chymotryptic activity | – | markedly reduced
